From US8173689B2 (Novartis AG, priority 2006, dated 2012)
Where two headings read alike, the source gives them in different places.

Tests used:
[1] = test system: MNFS60 (murine AML cells); experiment: Cell viability assay in MCSF dependent MNFS60 cells (Cell Titer Glo); format: cell-based; conditions: Mus musculus, tested at about 1 μM, read-out: M-NFS-60 CP percent inhibition
Protocol: Cell viability was assessed by Cell Titer Glo, Promega. […] Test compounds were serially diluted (3 fold) in DMSO to 500× the final concentration. […] Final concentration of MCSF is 10 ng/ml. Cells were incubated for 72 hrs at 37° C., 5% CO2. After the incubation 100 μl Cell Titer Glo is added to each well to determine viable cells. The assay was performed according to the manufacturer's instruction (Promega Corporation, Madison, Wis. USA). Each experimental condition was performed in triplicate. Raw data was imported in Abase and EC50s calculated with XL-fit data analysis software.

[2] = biological target: T1, kinase domain of PDGFRβ (Homo sapiens, UniProt P09619); experiment: Inhibition of PDGFRb kinase signaling in an in vitro biochemical assay (alphascreen); conditions: tested at about 1 μM, read-out: PDGFRβ percent inhibition
T1 construct: The kinase domain of PDGFRβ was assayed in 50 mM Hepes; purchased Invitrogen P3082
T1 sequence (P09619 600-962 limits assumed): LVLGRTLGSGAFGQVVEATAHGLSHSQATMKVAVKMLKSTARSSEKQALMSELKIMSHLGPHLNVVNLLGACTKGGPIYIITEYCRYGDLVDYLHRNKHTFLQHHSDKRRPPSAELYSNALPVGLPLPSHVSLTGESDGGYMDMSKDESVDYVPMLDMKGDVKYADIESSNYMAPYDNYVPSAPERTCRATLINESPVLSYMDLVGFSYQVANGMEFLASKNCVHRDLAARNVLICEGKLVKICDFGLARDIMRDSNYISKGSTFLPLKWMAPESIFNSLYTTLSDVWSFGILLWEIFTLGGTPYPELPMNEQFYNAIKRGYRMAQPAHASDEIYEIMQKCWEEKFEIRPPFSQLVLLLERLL

[3] = biological target: T2, cytoplasmic domain of the human CSF-1R (Homo sapiens, UniProt P07333); experiment: In vitro kinase assay for colony stimulating factor-1 receptor (AlphaScreen); format: biochemical; conditions: tested at about 1 μM, read-out: CSF-1R percent inhibition
T2 construct: Recombinant protein corresponding to the cytoplasmic domain of the human CSF-1R; purchased Invitrogen Corporation, Carlsbad, Calif; PV3249
T2 sequence (P07333 539-972 limits assumed): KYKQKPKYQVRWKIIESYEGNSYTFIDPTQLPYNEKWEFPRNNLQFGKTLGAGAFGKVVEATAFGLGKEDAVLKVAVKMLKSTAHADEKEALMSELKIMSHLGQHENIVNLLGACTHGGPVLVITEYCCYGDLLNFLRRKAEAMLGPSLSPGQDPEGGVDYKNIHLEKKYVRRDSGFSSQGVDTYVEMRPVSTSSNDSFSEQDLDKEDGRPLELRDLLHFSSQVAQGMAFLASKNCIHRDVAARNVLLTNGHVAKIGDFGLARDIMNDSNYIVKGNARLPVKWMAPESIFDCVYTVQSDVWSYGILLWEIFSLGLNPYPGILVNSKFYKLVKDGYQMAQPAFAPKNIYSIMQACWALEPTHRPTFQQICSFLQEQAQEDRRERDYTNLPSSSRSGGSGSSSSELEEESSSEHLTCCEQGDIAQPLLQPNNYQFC
How it was run: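 AlphaScreen read-out (PT66 anti-pTyr acceptor beads, streptavidin donor beads, overnight incubation) measured phosphorylated peptide product. The product was formed by the human CSF-1R cytoplasmic domain at 4 nM with 1 µM ATP in Mg2+/Mn2+ HEPES buffer, pH 7.5. Compound dilution series were 3-fold, starting at 25 µM.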

[4] = biological target: T3, kinase domain of cKIT (Homo sapiens, UniProt P10721); experiment: Inhibition of cKIT kinase signaling in an in vitro biochemical assay (alphascreen); conditions: tested at about 1 μM, read-out: cKit percent inhibition
T3 construct: The kinase domain of cKIT was assayed in 50 mM Hepes; purchased Upstate 14-559
T3 sequence (P10721 589-937 limits assumed): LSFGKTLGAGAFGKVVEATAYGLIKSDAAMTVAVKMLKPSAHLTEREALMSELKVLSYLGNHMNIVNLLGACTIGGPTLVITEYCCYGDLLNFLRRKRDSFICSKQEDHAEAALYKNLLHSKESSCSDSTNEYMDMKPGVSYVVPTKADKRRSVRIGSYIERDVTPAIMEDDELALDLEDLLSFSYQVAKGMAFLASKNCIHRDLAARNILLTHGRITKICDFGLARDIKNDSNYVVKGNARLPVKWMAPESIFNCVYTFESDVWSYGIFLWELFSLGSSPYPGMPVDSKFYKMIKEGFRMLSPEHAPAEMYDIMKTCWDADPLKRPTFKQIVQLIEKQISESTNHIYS

Compound | inhibition at 1 µM ([2]; compounds of Table 3) [%] | inhibition at 1 µM ([3]; compounds of Table 3) [%] | inhibition at 1 µM ([4]; compounds of Table 3) [%] | inhibition at 1 µM [3] [%] | inhibition at 1 µM [2] [%] | inhibition at 1 µM [4] [%] | inhibition at 1 µM ([1]; compounds of Table 3) [%] | inhibition at 1 µM ([1]; MNFS60 cells) [%]
CNC(=O)c1cc(Oc2ccc3nc(Nc4ccc(Br)cc4)oc3c2)ccn1 [Compound 1, 4-[2-(4-Bromo-phenylamino)-benzooxazol-6-yloxy]-pyridine-2-carboxylic acid methylamide] | – | – | – | 99 | – | – | – | 21
CNC(=O)c1cc(Oc2ccc3nc(Nc4ccccc4N4CCOCC4)oc3c2)ccn1 [Compound 3, 4-[2-(2-Morpholin-4-yl-phenylamino)-benzooxazol-6-yloxy]-pyridin-2-carboxylic acid methylamide] | – | – | – | 96 | – | – | – | 0
CNC(=O)c1cc(Oc2ccc3nc(Nc4ccccc4OC)oc3c2)ccn1 [Compound 11, 4-[2-(2-Methoxy-phenylamino)-benzooxazol-6-yloxy]-pyridin-2-carboxylic acid methylamide] | – | – | – | 99 | 96 | – | – | 26
CC(=O)Nc1cc(Oc2ccc3nc(NC4CCCCC4)oc3c2)ccn1 [Compound 29, N-[4-(2-Cyclohexylamino-benzooxazol-6-yloxy)-pyridin-2-yl]-acetamide] | – | – | – | 99 | 51 | – | – | 0
CNC(=O)c1cc(Oc2ccc3nc(NCc4ccccn4)oc3c2)ccn1 [Compound 40, 4-{2-[(Pyridin-2-ylmethyl)-amino]-benzooxazol-6-yloxy}-pyridine-2-carboxylic acid methylamide] | – | – | – | 99 | 6 | – | – | 0
CNC(=O)c1cc(Oc2ccc3nc(Nc4ccccc4CCN4CCOCC4)oc3c2)ccn1 [Compound 48, 4-{2-[2-(2-Morpholin-4-yl-ethyl)-phenylamino]-benzo-oxazol-6-yloxy}-pyridine-2-carboxylic acid methylamide] | – | – | – | 84 | 0 | – | – | 0
CNC(=O)c1cc(Oc2ccc3nc(NCc4ccc(OC)c(OC)c4)oc3c2)ccn1 [Compound 90, 4-[2-(3,4-Dimethoxy-benzyl-amino)-benzooxazol-6-yloxy]-pyridine-2-carboxylic acid methylamide] | – | – | – | 99 | – | 22 | – | 18
CNC(=O)c1cc(Oc2ccc3nc(NCc4ccc(OC)cc4OC)oc3c2)ccn1 [Compound 92, 4-[2-(2,4-Dimethoxy-benzyl-amino)-benzooxazol-6-yloxy]-pyridine-2-carboxylic acid methylamide] | – | – | – | 99 | – | 98 | – | 17
CNC(=O)c1cc(Oc2ccc3nc(N[C@H]4CCCNC4)sc3c2)ccn1 [Example 332, (S)-N-methyl-4-(2-(piperidin-3-ylamino)benzo[d]thiazol-6-yloxy)picolinamide] | – | – | – | 48 | 10 | 38 | – | –
CNC(=O)c1cc(Oc2ccc3nc(N[C@H]4CCCN(C(=O)NC(C)C)C4)sc3c2)ccn1 [Example 333, (S)-4-(2-(1-(isopropylcarbamoyl)piper-idin-3-ylamino)benzo[d]thiazol-6-yloxy)-N-methylpicolinamide] | – | – | – | 86 | 6 | 21 | – | –
Cn1cc(-c2cc(Oc3ccc4nc(N[C@@H]5CCCc6ccccc65)sc4c3)ccn2)cn1 [Example 363, (R)-6-(2-(1-methyl-1H-pyrazol-4-yl)pyridin-4-yloxy)-N-(1,2,3,4-tetrahydronaphthalen-1-yl)benzo[d]thiazol-2-amine] | – | – | – | 100 | 99 | 100 | – | –
CNC(=O)c1cc(Oc2cc3sc(NCC4CCCCC4)nc3cc2F)ccn1 [Example 379, 4-(2-(cyclohexylmethylamino)-5-fluorobenzo[d]thiazol-6-yloxy)-N-methylpicolinamide] | – | – | – | 77 | 36 | 16 | – | –

Continued, in another order:

inhibition at 1 µM ([2]; compounds of Table 3) [%] | inhibition at 1 µM ([3]; compounds of Table 3) [%] | inhibition at 1 µM ([4]; compounds of Table 3) [%] | inhibition at 1 µM [3] [%] | inhibition at 1 µM [2] [%] | inhibition at 1 µM [4] [%] | Compound | inhibition at 1 µM ([1]; compounds of Table 3) [%] | inhibition at 1 µM ([1]; MNFS60 cells) [%]
1 | 100 | 11 | – | – | – | O[C@@H]1CCCC[C@H]1Nc1nc2ccc(Oc3ccnc(N4CCOCC4)c3)cc2s1 [Cmpd 175, (1R,2R)-2-(6-(2-morpholinopyridin-4-yloxy)benzo[d]thiazol-2-ylamino)cyclohexanol] | 17 | –
31 | 95 | 99 | – | – | – | CNC(=O)c1cc(Oc2ccc3nc(N[C@H](CO)Cc4ccccc4)oc3c2)ccn1 [Compound 8] | 0 | –
– | – | – | 99 | 12 | – | CCOc1ccccc1Nc1nc2ccc(Oc3ccnc(C(=O)NC)c3)cc2o1 [Compound 12, 4-[2-(2-Ethoxy-phenylamino)-benzooxazol-6-yloxy]-pyridin-2-carboxylic acid methylamide] | – | 30
– | – | – | 100 | 2 | – | CC[C@@H](Nc1nc2ccc(Oc3ccnc(C(=O)NC)c3)cc2o1)c1ccccc1 [Compound 19, 4-[2-((R)-1-Phenyl-propyl-amino)-benzooxazol-6-yloxy]-pyridine-2-carboxylic acid methylamide] | – | 36
– | – | – | 99 | 20 | – | CNC(=O)c1cc(Oc2ccc3nc(NC4CCCCC4)oc3c2)ccn1 [Compound 24, 4-(2-Cyclohexylamino-benzooxazol-6-yloxy)-pyridine-2-carboxylic acid methylamide] | – | 12
– | – | – | 98 | 100 | – | CNC(=O)c1cc(Oc2ccc3nc(Nc4ccccc4)oc3c2)ccn1 [Compound 26, 4-(2-Phenylamino-benzooxazol-6-yloxy)-pyridine-2-carboxylic acid methylamide] | – | 24
– | – | – | 94 | 15 | – | CNC(=O)c1cc(Oc2ccc3nc(Nc4ccccc4-c4cnco4)oc3c2)ccn1 [Compound 46, 4-[2-(2-Oxazol-5-yl-phenylamino)-benzooxazol-6-yloxy]-pyridine-2-carboxylic acid methylamide] | – | 1
– | – | – | 99 | – | 42 | CNC(=O)c1cc(Oc2ccc3nc(NCc4c(F)cccc4F)oc3c2)ccn1 [Compound 87, 4-[2-(2,6-Difluoro-benzylamino)-benzooxazol-6-yloxy]-pyridine-2-carboxylic acid methylamide] | – | 21
– | – | – | 99 | – | 14 | CNC(=O)c1cc(Oc2ccc3nc(Nc4cccc5c4OCCO5)oc3c2)ccn1 [Compound 94, 4-[2-(2,3-Dihydro-benzo-[1,4]dioxin-5-ylamino)-benzooxazol-6-yloxy]-pyridine-2-carboxylic acid methylamide] | – | 28
– | – | – | 52 | 2 | 23 | CNC(=O)c1cc(Oc2ccc3nc(N[C@H]4CCCC[C@H]4NC(=O)[C@@H]4CCCN4C)sc3c2)ccn1 [Example 313, N-methyl-4-(2-((1S,2R)-2-((S)-1-methylpyrrolidine-2-carboxamido)cyclohexylamino)benzo[d]thiazol-6-yloxy)picolinamide] | – | –
– | – | – | 47 | 0 | 6 | CNC(=O)c1cc(Oc2ccc3nc(N[C@@H]4CCCC[C@H]4NC(=O)C(C)C)sc3c2)ccn1 [Example 327, 4-(2-((1R,2R)-2-isobutyramidocyclohexyl-amino)benzo[d]thiazol-6-yloxy)-N-methylpicolinamide] | – | –
– | – | – | 100 | 75 | 100 | Cn1cc(-c2cc(Oc3ccc4nc(NCCC5CCOCC5)sc4c3)ccn2)cn1 [Example 361, 6-(2-(1-methyl-1H-pyrazol-4-yl)pyridin-4-yloxy)-N-(2-(tetrahydro-2H-pyran-4-yl)ethyl)benzo[d]thiazol-2-amine] | – | –
– | – | – | 100 | 100 | 100 | Cn1cc(-c2cc(Oc3ccc4nc(NC5CCCCCC5)sc4c3)ccn2)cn1 [Example 364, N-cycloheptyl-6-(2-(1-methyl-1H-pyrazol-4-yl)pyridin-4-yloxy)benzo[d]thiazol-2-amine] | – | –
